Results on 14 molecules are retold here after EP2050748A1, “Novel fused pyrimidines” (Bayer Schering Pharma Aktiengesellschaft, priority 2007, dated 2009).

Experiment [1] relates to phosphorylated Akt protein (Ser473). Description: Cellular PI3K / Akt pathway assay (phospho-Akt ELISA). In kind it is cell-based. The note with it: Homo sapiens; MCF7 cells, stimulated with ß-Heregulin (20ng/ml), compound incubated 48h, phospho-Akt1 (Ser473) ELISA. The protocol:
In order to study the cellular activity of the compounds according to the present invention, an Enzyme Linked Immunosorbent Assay (ELISA)-based assay has been used specific phospho-AKT. The assay is based on a Sandwich ELISA kit (PathScan™ Phospho-Akt1 (Ser473); Cell Signaling, USA; #7160).
The ELISA Kit detects endogenous levels of phosphorylated Akt protein. A phospho-Akt (Ser473) antibody (Cell Signaling, USA; #9271) has been coated onto the microwells. After incubation with cell lysates, the coated antibody captures the phosphorylated Akt protein. Following extensive washing, Akt1 monoclonal antibody (Cell Signaling, USA; #2967) is added to detect the captured phospho-Akt1 protein. HRP-linked anti-mouse antibody (HRP: horseradish peroxidase; Cell Signaling, USA; #7076) is then used to recognize the bound detection antibody. HRP substrate (= 3,3',5,5'-tetramethylbenzidine (TMB); Cell Signaling, USA; #7160) is added to develop colour. The magnitude of optical density for this developed color is proportional to the quantity of phosphorylated Akt protein.
MCF7 cells (ATCC HTB-22) are seeded into 96 well fate bottom plates at a density of 10000 cells/well. 24 hours after seeding, the cells are serum starved using low-serum medium (IMEM media including 0,1% charcoal treated FCS (FCS: fetal calf serum)). After 24 hours 1 µl each of the compound dilutions (test compounds were dissolved as 10 mM solutions in dimethylsulfoxide (DMSO) and subsequently diluted) are added into each well of the 96 well plates and incubated for 48h at 37°C in a humidified athmosphere containing 5% CO2. To stimulate Akt phosphorylation, ß-Heregulin (20ng/ml β-HRG) is added in parallel to the compounds. Wells containing unstimulated control cells (no β-Heregulin stimulation) are incubated with or without the diluted compound. Wells containing untreated control cells (no compound) are filled with medium containing 0.5% v:v DMSO and are or are not stimulated with β-Heregulin.
Cells are harvested and lysed with brief sonification in 1x x cell lysis buffer (20mM Tris (pH7.5), 150 mM NaCl, 1 mM ethylene diaminetetraacetate (EDTA), 1 mM ethylene glycolbis(2-aminoethyl)-N,N,N',N'-tetraacetic acid (EGTA), 1vol% Triton X-100, 2.5mM sodium pyrophosphate, 1 mM β-glycerolphosphate, 1 mM Na3VO4, 1 µg/ml leupeptin). The lysate is centrifuged for 10 min. at 4°C and the supernatant is transferred to a new tube. 100 µl of sample diluent (0.1vol% Tween-20, 0.1vol% sodium azide in phosphate buffered saline (PBS)) are added to a microcentrifuge tube and 100 µl of cell lysate are transferred into the tube and vortexed. 100 µl of each diluted cell lysate are added to the appropriate ELISA well, and incubated overnight at 4°C. The plates are washed 4 times with 1 x wash buffer (1 vol% tween-20, 0.33vol% thymol, in PBS). Next 100 µl of detection antibody (Akt1 (2H10) monoclonal detection antibody; Cell Signaling, USA; #2967) are added to each well and incubation continued for 1 h at 37°C. The washing procedure is repeated between each step. 100µl of secondary antibody (anti-mouse IgG HRP-linked antibody; Cell Signaling, USA; #7076) are added to each well and incubated for 30 min. at 37°C. Than, 100µl of TMB substrate (0.05% 3,3',5,5' tetramethylbenzidine, 0.1 % hydrogen peroxide, complex polypeptides in a buffered solution; Cell Signaling, USA; #7160) are added to each well and incubated for 30 min. at 25°C. Finally 100 µl of STOP solution (0.05vol% α and β unsaturated carbonyl compound) are added to each well and the plate are shaked gently. The absorbance is measured at λ=450 nm (Wallac Victor2; Perkin Elmer, USA) within 30 min. after adding the STOP solution. The analysis of the data is performed using a statistical program (Excel; Microsoft, USA). Preferred compounds show an inhibitory activity towards Akt phosphorylation below 10µM.
On the technique in general: An ELISA detects its analyte on a solid surface through an enzyme-linked reagent.

Experiment [2] has as its system phosphorylated GSK3 (Ser9). Kind of experiment: Cellular pGSK3 assay (phospho-GSK3 ELISA). It is filed as cell-based. Particulars: Homo sapiens, MCF7 cells, compound incubated 48h. As to the method: In order to study the cellular activity of the compounds according to the present invention, an ELISA-based assay has been established for the phosphorylated protein glycogen synthetase kinase 3 (GSK3). The assay is based on a solid phase sandwich ELISA that detects endogenous levels of phosphorylated GSK3 using a phospho-GSK3 (Ser9) specific antibody (BioSource International, Inc.; Catalog #KHO0461). After incubation with cell lysates, the coated antibody captures the phosphorylated GSK3 protein. Following extensive washing, GSK3 polyclonal antibody is added to detect the captured phospho-GSK3 protein. Secondary antibody (anti-rabbit IgG-HRP) is then used to recognize the bound detection antibody. After the second incubation and washing to remove all the excess anti-rabbit IgG-HRP, a substrate solution is added, which is acted upon by the bound enzyme to produce color. The intensity of this colored product is directly proportional to the concentration of GSK-3β [pS9] present in the original specimen. MCF7 cells (ATCC HTB-22) were seeded into 96 well fate bottom plates at a density of 10000 cells/well. After 24 h 1 µl each of the compound dilutions (test compounds were dissolved as 10 mM solutions in dimethylsulfoxide (DMSO) and subsequently diluted) were added into each well of the 96 well plates and incubated for 48h at 37°C in a humidified athmosphere containing 5% CO2. Cells were harvested and lysed in cell extraction buffer (10 mM Tris, pH 7.4, 100 mM NaCl, 1 mM EDTA, 1 mM EGTA, 1 mM NaF, 20 mM Na4P2O7, 2 mM Na3VO4, 1% Triton X-100, 10vol% glycerol, 0.1vol% SDS, 0.5vol% deoxycholate, 1 mM phenylmethylsulfonylfluorid (PMSF)). The lysate were centrifuged for 10 min. at 4°C and the supernatant were transferred to a new tube. 50 µl of sample diluent (standard diluent buffer, Biosource) were added and 100 µl of cell lysate transferred into the tube and vortexed. 100 µl of each diluted cell lysate were added to the appropriate ELISA well plate and incubated for 3h at room temperature. The plates were washed 4 times with 1x wash buffer (Biosource). 50 µl of detection antibody (GSK3 (Ser9) detection antibody; BioSource) were added to each well and incubated for 30 min. at room temperature. The washing procedure was repeated between each step. 100µl of HRP-linked secondary antibody (anti-mouse IgG HRP-linked antibody) were added to each well and incubated for 30 min. at room temperature. 100µl of TMB substrate (0.05vol% 3,3',5,5' tetramethylbenzidine, 0.1vol% hydrogen peroxide, complex polypeptides in a buffered solution; Biosource) were added to each well and incubated for 30 min. at room temperature. Finally 100 µl of Stop solution (0.05vol% α and β unsaturated carbonyl compound) were added to each well and the plate were shaked gently for a few seconds. The absorbance was measured at λ = 450 nm (Wallac Victor2; Perkin Elmer, USA) within 30 min. after adding the stop solution. The analysis of the data was performed using a statistical program (Excel; Microsoft, USA) and the IC50 of pGSK3 inhibition was determined.

Turning to `CNc1c(-c2ccccc2)c(-c2ccc(CN3CCC(c4n[nH]c(-c5ccccn5)n4)CC3)cc2)nc2nccn12` [Example 10, N-methyl-6-phenyl-7-(4-{[4-(5-pyridin-2-yl-1,2,4-triazol-3-yl)piperidin-1-yl]methyl}phenyl)imidazo[1,2-a]pyrimidin-5-amine], the IC50 (in general, the concentration at which inhibition is half-maximal) is 1 to 10 µM in experiment [1] and less than 1 µM in experiment [2].
The like results for `c1ccc(-c2cn3ccnc3nc2-c2ccc(CN3CCC(c4n[nH]c(-c5ncccn5)n4)CC3)cc2)cc1` [Example 18, 6-phenyl-7-(4-{[4-(5-pyrimidin-2-yl-1,2,4-triazol-3-yl)piperidin-1-yl]methyl}phenyl)imidazo[1,2-a]pyrimidine] were, in that order, 1 to 10 µM and 1 to 10 µM.
In the case of `C#Cc1cnc2nc(-c3ccc(CN4CCC(c5n[nH]c(-c6ccccn6)n5)CC4)cc3)c(-c3ccccc3)cn12` [Example 13, 3-ethynyl-6-phenyl-7-(4-{[4-(5-pyridin-2-yl-1,2,4-triazol-3-yl)piperidin-1-yl]methyl}phenyl)imidazo[1,2-a]pyrimidine], the values for the IC50 in experiment [1] and in experiment [2] were less than 1 µM and 1 to 10 µM, respectively.
Regarding `c1ccc(-c2cn3nccc3nc2-c2ccc(CN3CCC(c4n[nH]c(-c5ccccn5)n4)CC3)cc2)cc1` [Example 19, 6-phenyl-5-(4-{[4-(5-pyridin-2-yl-1,2,4-triazol-3-yl)piperidin-1-yl]methyl}phenyl)pyrazolo[1,5-a]pyrimidine], the values for the IC50 in experiment [1] and in experiment [2] were less than 1 µM and 1 to 10 µM, respectively.
As to `c1ccc(-c2cn3nc(C4CC4)nc3nc2-c2ccc(CN3CCC(c4n[nH]c(-c5ccccn5)n4)CC3)cc2)cc1` [Example 4, 2-cyclopropyl-6-phenyl-5-(4-{[4-(5-pyridin-2-yl-1,2,4-triazol-3-yl)piperidin-1-yl]methyl}phenyl)[1,2,4]triazolo[1,5-a]pyrimidine], the IC50 in experiment [1] was less than 1 µM; in experiment [2], 1 to 10 µM.
With `c1ccc(-c2cn3ccnc3nc2-c2ccc(CN3CCC(c4n[nH]c(-c5ccncc5)n4)CC3)cc2)cc1` [Example 6, 6-phenyl-7-(4-{[4-(5-pyridin-4-yl-1,2,4-triazol-3-yl)piperidin-1-yl]methyl}phenyl)imidazo[1,2-a]pyrimidine], the IC50 is less than 1 µM in experiment [1] and 1 to 10 µM in experiment [2].
The matching figures for `c1ccc(-c2cn3ncnc3nc2-c2ccc(CN3CCC(c4n[nH]c(-c5ccccn5)n4)CC3)cc2)cc1` [Example 2, 6-phenyl-5-(4-([4-(5-pyridin-2-yl-1,2,4-triazol-3-yl)piperidin-1-yl]methyl}phenyl)[1,2,4]triazolo[1,5-a]pyrimidine]: less than 1 µM and 1 to 10 µM.
With `c1ccc(-c2cn3ccnc3nc2-c2ccc(CN3CCC(c4n[nH]c(-c5cnccn5)n4)CC3)cc2)cc1` [Example 21, 6-phenyl-7-(4-{[4-(5-pyrazin-2-yl-1,2,4-triazol-3-yl)piperidin-1-yl]methyl}phenyl)imidazo[1,2-a]pyrimidine], the IC50 is less than 1 µM in experiment [1] and 1 to 10 µM in experiment [2].
In the case of `Cc1cnc2nc(-c3ccc(CN4CCC(c5n[nH]c(-c6ccccn6)n5)CC4)cc3)c(-c3ccccc3)cn12` [Example 14, 3-methyl-6-phenyl-7-(4-{[4-(5-pyridin-2-yl-1,2,4-triazol-3-yl)piperidin-1-yl]methyl}phenyl)imidazo[1,2-a]pyrimidine], the IC50 in experiment [1] was less than 1 µM; in experiment [2], 1 to 10 µM.
For the molecule `Brc1cnc2nc(-c3ccc(CN4CCC(c5n[nH]c(-c6ccccn6)n5)CC4)cc3)c(-c3ccccc3)cn12` [Example 11, 3-bromo-6-phenyl-7-(4-{[4-(5-pyridin-2-yl-1,2,4-triazol-3-yl)piperidin-1-yl]methyl}phenyl)imidazo[1,2-a]pyrimidine], the IC50 in experiment [1] and in experiment [2] was less than 1 µM each time.
For `c1ccc(-c2cn3nc(C4CCC4)nc3nc2-c2ccc(CN3CCC(c4n[nH]c(-c5ccccn5)n4)CC3)cc2)cc1` [Example 7, 2-cyclobutyl-6-phenyl-5-(4-{[4-(5-pyridin-2-yl-1,2,4-triazol-3-yl)piperidin-1-yl]methyl}phenyl)[1,2,4]triazolo[1,5-a]pyrimidine], the IC50 in experiment [1] and in experiment [2] was less than 1 µM throughout.
For the molecule `c1ccc(-c2cn3ccnc3nc2-c2ccc(CN3CCC(n4cnc(-c5ccccn5)c4)CC3)cc2)cc1` [Example 20, 6-phenyl-7-(4-{[4-(4-pyridin-2-yl-imidazol-1-yl)piperidin-1-yl]methyl}phenyl)imidazo[1,2-a]pyrimidine], the figures for the IC50 in experiment [1] and in experiment [2] were less than 1 µM and 1 to 10 µM, respectively.
Regarding `C=Cc1cnc2nc(-c3ccc(CN4CCC(c5n[nH]c(-c6ccccn6)n5)CC4)cc3)c(-c3ccccc3)cn12` [Example 15, 6-phenyl-7-(4-{[4-(5-pyridin-2-yl-1,2,4-triazol-3-yl)piperidin-1-yl]methyl}phenyl)-3-vinylimidazo[1,2-a]pyrimidine], the IC50 in experiment [1] is less than 1 µM; in experiment [2], 1 to 10 µM.
The like results for `Cc1nc2nc(-c3ccc(CN4CCC(c5n[nH]c(-c6ccccn6)n5)CC4)cc3)c(-c3ccccc3)cn2n1` [Example 3, 2-methyl-6-phenyl-5-(4-{[4-(5-pyridin-2-yl-1,2,4-triazol-3-yl)piperidin-1-yl]methyl}phenyl)[1,2,4]triazolo[1,5-a]pyrimidine] were, in that order, less than 1 µM and 1 to 10 µM.
